In article PMC4303209, “A novel phosphatidylinositol 3-kinase (PI3K) inhibitor directs a potent FOXO-dependent, p53-independent cell cycle arrest phenotype characterized by the differential induction of a subset of FOXO-regulated genes” (Breast Cancer Research : BCR, 2014):

Test system: MCF-7 breast cancer cells
Test: Microarray gene expression analysis (Agilent whole human genome 4 x 44K; compound vs DMSO, LIMMA log2 fold change)
Type: cell-based
Conditions: cell cycle genes

Oc1cccc(-c2nc(N3CCOCC3)c3oc4ncccc4c3n2)c1 [PI-103]
TRIAP1 log2FC (Gene 51499): -0.86
DTL log2FC (Gene 51514): -0.14
SIRT7 log2FC (Gene 51547): 0.32
CINP log2FC (Gene 51550): -0.05
GINS2 log2FC (Gene 51659): -0.80
NUP54 log2FC (Gene 53371): 0.41
PELO log2FC (Gene 53918): -0.59
WNT4 log2FC (Gene 54361): -0.42
ANLN log2FC (Gene 54443): 0.75
FBXW5 log2FC (Gene 54461): 0.13
FAM64A log2FC (Gene 54478): 0.10
DDX4 log2FC (Gene 54514): -0.13
BTG4 log2FC (Gene 54766): 0.11
NDE1 log2FC (Gene 54820): 0.40
NSUN2 log2FC (Gene 54888): -0.48
TTC19 log2FC (Gene 54902): 0.67
TXNL4B log2FC (Gene 54957): 0.28
BANP log2FC (Gene 54971): 0.16
AURKAIP1 log2FC (Gene 54998): -0.22
PHIP log2FC (Gene 55023): 1.07
USP47 log2FC (Gene 55031): 0.61
ZWILCH log2FC (Gene 55055): 0.41
PIWIL2 log2FC (Gene 55124): 0.06
CEP192 log2FC (Gene 55125): 0.35
CDCA8 log2FC (Gene 55143): -0.04
RFWD3 log2FC (Gene 55159): -0.62
CEP55 log2FC (Gene 55165): 0.99
CENPQ log2FC (Gene 55166): 0.81
RIF1 log2FC (Gene 55183): 0.39
ARL8B log2FC (Gene 55207): 0.45
RCBTB1 log2FC (Gene 55213): 0.71
CCDC87 log2FC (Gene 55231): 0.15
STEAP3 log2FC (Gene 55240): -0.44
MNS1 log2FC (Gene 55329): 0.91
MCM10 log2FC (Gene 55388): -0.91
SMPD3 log2FC (Gene 55512): -0.27
TRIM36 log2FC (Gene 55521): 0.64
RBM38 log2FC (Gene 55544): -0.58
PRR5 log2FC (Gene 55615): 0.45
PRPF40A log2FC (Gene 55660): 1.01
CEP72 log2FC (Gene 55722): 0.31
CHFR log2FC (Gene 55743): -0.11
NUP133 log2FC (Gene 55746): 0.25
CCAR1 log2FC (Gene 55749): 0.55
CDK5RAP2 log2FC (Gene 55755): 0.51
PCID2 log2FC (Gene 55795): 0.32
CENPN log2FC (Gene 55839): 0.30
PPP2R2D log2FC (Gene 55844): -0.17
HDAC8 log2FC (Gene 55869): -0.36
PBK log2FC (Gene 55872): 0.46
BIN3 log2FC (Gene 55909): -0.80
ERBB2IP log2FC (Gene 55914): 1.07
RCC2 log2FC (Gene 55920): -0.27
KLHL9 log2FC (Gene 55958): 0.04
TEX11 log2FC (Gene 56159): 0.000672
TDRD1 log2FC (Gene 56165): 0.04
PARD3 log2FC (Gene 56288): 0.46
RPRM log2FC (Gene 56475): -0.24
CYP26B1 log2FC (Gene 56603): 0.03
SPIRE1 log2FC (Gene 56907): 0.10
SMARCAD1 log2FC (Gene 56916): 0.55
PRDM9 log2FC (Gene 56979): 0.0757
KIF15 log2FC (Gene 56992): 1.30
PDXP log2FC (Gene 57026): -0.93
PCBP4 log2FC (Gene 57060): -0.27
CASC5 log2FC (Gene 57082): 0.12
PCNP log2FC (Gene 57092): 0.60
NUP107 log2FC (Gene 57122): 0.63
CHMP1B log2FC (Gene 57132): 0.39
PAK7 log2FC (Gene 57144): 0.45
CSRP2BP log2FC (Gene 57325): 0.27
TTYH1 log2FC (Gene 57348): -0.09
BIRC6 log2FC (Gene 57448): 0.14
MTA3 log2FC (Gene 57504): 0.33
HACE1 log2FC (Gene 57531): 0.51
TAOK1 log2FC (Gene 57551): 0.40
USP37 log2FC (Gene 57695): 0.38
FANCM log2FC (Gene 57697): 0.48
CCNB1IP1 log2FC (Gene 57820): 0.84
RHOU log2FC (Gene 58480): 1.56
OVOL2 log2FC (Gene 58495): 0.16
AVPI1 log2FC (Gene 60370): 0.53
RINT1 log2FC (Gene 60561): 0.44
FAM111A log2FC (Gene 63901): 0.33
DMRTC2 log2FC (Gene 63946): -0.00414
CLSPN log2FC (Gene 63967): -0.11
TSPYL2 log2FC (Gene 64061): -0.12
DPEP3 log2FC (Gene 64180): 0.19
RFWD2 log2FC (Gene 64326): -0.06
CENPH log2FC (Gene 64946): 0.38
MRPL41 log2FC (Gene 64975): -0.47
INTS3 log2FC (Gene 65123): -0.18
PHACTR4 log2FC (Gene 65979): 0.43
BOLL log2FC (Gene 66037): -0.012
MIS12 log2FC (Gene 79003): -0.76
CENPM log2FC (Gene 79019): 0.04
NUP37 log2FC (Gene 79023): 0.16
ZNF655 log2FC (Gene 79027): 0.68
CENPO log2FC (Gene 79172): -0.71
E2F8 log2FC (Gene 79733): 0.23
FBXO31 log2FC (Gene 79791): -0.10
CSPP1 log2FC (Gene 79848): 0.57
NEK11 log2FC (Gene 79858): 0.47
MAP9 log2FC (Gene 79884): 1.08
NUP85 log2FC (Gene 79902): 0.18
CEP76 log2FC (Gene 79959): 0.32
CENPT log2FC (Gene 80152): 0.00794
DBF4B log2FC (Gene 80174): -0.40
CEP290 log2FC (Gene 80184): 0.83
CEP63 log2FC (Gene 80254): 0.71
CDK5RAP3 log2FC (Gene 80279): 0.0271
CEP70 log2FC (Gene 80321): 0.58
TUBB1 log2FC (Gene 81027): -0.33
NDEL1 log2FC (Gene 81565): -0.13
FAM83D log2FC (Gene 81610): -0.15
CAB39L log2FC (Gene 81617): 0.08
CCNL2 log2FC (Gene 81669): -0.13
CABLES2 log2FC (Gene 81928): -0.71
KIF18A log2FC (Gene 81930): 1.18
SESN2 log2FC (Gene 83667): -0.54
SETDB2 log2FC (Gene 83852): 1.23
GSG2 log2FC (Gene 83903): -0.50
RASSF4 log2FC (Gene 83937): 0.14
MND1 log2FC (Gene 84057): 0.59
HORMAD1 log2FC (Gene 84072): 0.40
USP44 log2FC (Gene 84101): 0.0155
CEP78 log2FC (Gene 84131): 0.36
GINS4 log2FC (Gene 84296): -0.47
RAB11FIP4 log2FC (Gene 84440): 0.56
LZTS2 log2FC (Gene 84445): 1.13
BRSK1 log2FC (Gene 84446): 0.0146
SPIRE2 log2FC (Gene 84501): 0.56
PARD6B log2FC (Gene 84612): 0.88
PPP1R9B log2FC (Gene 84687): -0.13
SPATA22 log2FC (Gene 84690): 0.0637
BEX2 log2FC (Gene 84707): 0.83
PSRC1 log2FC (Gene 84722): 0.36
KLHL22 log2FC (Gene 84861): 0.21
TBRG1 log2FC (Gene 84897): 0.08
MASTL log2FC (Gene 84930): 0.43
LSM10 log2FC (Gene 84967): -1.02
CCNB3 log2FC (Gene 85417): 0.31
LRRCC1 log2FC (Gene 85444): 0.61
DIXDC1 log2FC (Gene 85458): 0.018
PNPT1 log2FC (Gene 87178): -0.10
LMLN log2FC (Gene 89782): 0.82
KLHL13 log2FC (Gene 90293): 0.07
GADD45GIP1 log2FC (Gene 90480): -0.25
SLFN11 log2FC (Gene 91607): -0.61
CENPL log2FC (Gene 91687): -0.11
CABLES1 log2FC (Gene 91768): 1.68
SYCE1 log2FC (Gene 93426): -0.08
ACTR8 log2FC (Gene 93973): 0.12
TP53INP1 log2FC (Gene 94241): 0.89
CDCA5 log2FC (Gene 113130): 0.0109
TUBGCP5 log2FC (Gene 114791): 0.12
